# Experiments:
# full-length HAQ STING = full-length HAQ STING (Homo sapiens (Human), UniProt Q86WV6, G230A/H232R/R293Q/R71H); test: 3H-cGAMP filtration binding assay (HAQ STING); settings: competition with tritiated cGAMP, HAQ STING membrane
# From the text: The ability of compounds to bind STING is quantified by the ability to compete with tritiated cGAMP ligand for human STING receptor membrane using a radioactive filter-binding assay. The binding assay employs STING receptor obtained from Hi-Five cell membranes overexpressing full-length HAQ STING prepared in-house and tritiated cGAMP ligand also purified in-house.
# (§1) The ability of compounds to bind STING is quantified by their ability to compete with tritiated cGAMP ligand for human STING receptor membrane using a radioactive filter-binding assay. The binding assay employs STING receptor obtained from Trichoplusia ni cell membranes (T. ni; Expression Systems, cat #94-002F, www.exressionsystems.com) overexpressing full-length HAQ STING and tritiated cGAMP ligand.
# The basic HAQ STING filtration assay protocol is as follows:
# Compound and membrane then preincubated for 60 min at RT to allow compound binding to equilibrate. Following equilibration, 8 nM of [^3H]c-GAMP ligand was prepared by diluting into assay buffer, and 50 uL of this working stock was then manually added to each well of the assay plate. […] The filter plates were then dried at 55° C. for 30 min using a pressurized oven before 30 uL of ULTIMA GOLD F scintillate was added to each well. Tritium levels for each reaction well were then measured using a PerkinElmer TopCount plate reader.
# (§2) After normalization to controls, the percent activity for each compound concentration was calculated by measuring the amount of remaining radioactivity. The plot of percent activity versus the log of compound concentration was fit with a 4-parameter dose response equation to calculate EC50 values.
# THP1 cells = test: IFN-β secretion in THP1 cell culture (5 h); type: cell-based, human; settings: relative to 30 uM cGAMP
# Protocol: The ability of compounds to stimulate the secretion of interferon-beta from THP1 cells was measured using a human IFN-3 AlphaLISA kit (Perkin Elmer, Cat. No. AL265F). The basic protocol is as follows:
# The cell viability and count was ascertained using a Beckman Coulter V-Cell XR cell counter. The cells suspension was centrifuged at 200×g for 5 min at RT. Cells were resuspended to a density of 0.8×10^6/mL in 37° C. assay medium. Subsequent liquid transfers were performed using either a Matrix electronic multichannel pipette or an Agilent Bravo Automated Liquid Handling Platform.
# The assay was started by dispensing 40 μL of the previously prepared cell suspension into the wells of the plate containing compounds. After 5 h incubation at 37° C., 5% CO2 in a humidified atmosphere, the plate of cells and compounds was centrifuged at 200×g for 5 min at RT. […] To these supernatant-containing wells was added 10 μL of 5× Anti-Analyte Acceptor beads ([…] of AlphaLISA HiBlock Buffer) and incubated for 30 min at RT while shaking on an orbital plate shaker. To each well was added 10 μL of 5× Biotinylated Antibody Anti-analyte (5 nM in AlphaLISA HiBlock Buffer) and incubated on an orbital plate shaker for 60 min at RT or overnight at 4° C. To each well was added 25 μL of 2× SA-Donor beads ([…] in AlphaLISA HiBlock Buffer) and incubated for 30-45 min at RT in the dark while shaking on an orbital plate shaker. The plate was then read on a Perkin Elmer Envision (λex=680 nm, […]). The percent effect of the AlphaLISA signal at each compound concentration was calculated based on 30 uM cGAMP positive controls and 0.3% DMSO negative controls. The plot of percent effect versus the log of compound concentration was fit with a 4-parameter concentration response equation to calculate EC50 values.
# Compounds of the disclosure were evaluated for IFN-3 secretion in THP1 cell culture as described above.
# full-length WT STING = full-length WT STING (Homo sapiens (Human), UniProt Q86WV6, H232R); test: 3H-cGAMP filtration binding assay (WT STING); settings: for EC50: competition with tritiated cGAMP, WT STING membrane; for inhibition at 20 µM: WT STING, compound at 20 uM
# Chain of full-length WT STING (Q86WV6 other isoform, or with tags, fused parts or gaps H232R (already in the parent)): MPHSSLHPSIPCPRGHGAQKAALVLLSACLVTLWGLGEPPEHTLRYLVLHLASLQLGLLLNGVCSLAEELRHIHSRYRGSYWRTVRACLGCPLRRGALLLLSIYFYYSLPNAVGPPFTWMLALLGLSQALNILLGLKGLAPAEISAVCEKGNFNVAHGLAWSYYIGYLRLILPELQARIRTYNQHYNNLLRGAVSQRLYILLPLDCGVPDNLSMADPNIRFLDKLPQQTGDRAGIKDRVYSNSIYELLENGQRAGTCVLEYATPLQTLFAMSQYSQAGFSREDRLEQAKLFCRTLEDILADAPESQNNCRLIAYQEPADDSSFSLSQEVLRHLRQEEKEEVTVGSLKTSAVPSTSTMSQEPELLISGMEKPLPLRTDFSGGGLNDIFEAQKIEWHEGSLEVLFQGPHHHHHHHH
# From the text: as §1, with “www.expressionsystems.com)” for “www.exressionsystems.com)”, “WT” for “HAQ”
# The basic WT STING filtration assay protocol is as follows:
# The filter plates were then dried at 55° C. for 30 min using a pressurized VWR oven before 30 uL of ULTIMA GOLD F scintillate was added to each well. Tritium levels for each reaction well were then measured using a PerkinElmer TopCount plate reader.
# as §2
# Chain of full-length HAQ STING (Q86WV6 other isoform, or with tags, fused parts or gaps, stated change not applied): as the sequence (Q86WV6 other isoform, or with tags, fused parts or gaps H232R (already in the parent)) above, with R71H, G230A, R293Q counted along it
SMILES,EC50 (full-length HAQ STING),% Effect at 30 μM relative to 2’3’-cGAMP (THP1 cells),EC50 (full-length WT STING),inhibition at 20 µM (full-length WT STING)
"COc1cc2sc(C(=O)[C@@H]3C[C@@H]3C(=O)O)cc2cc1Br (single isomer, unassigned) [Example 5, 2-(5-bromo-6-methoxybenzo[b]thiophene-2-carbonyl)cyclopropane-1-carboxylic acid]",1.14 µM,77%,,
"COc1cc2sc(C(=O)[C@H]3C[C@H]3C(=O)O)cc2cc1Br (single isomer, unassigned) [Example 6, 2-(5-bromo-6-methoxybenzo[b]thiophene-2-carbonyl)cyclopropane-1-carboxylic acid]",0.703 µM,130%,,
"CCC(CC(=O)c1cc2cc(OC)c(OC)cc2s1)C(=O)O (centres unmarked) [Example 1, 4-(5,6-dimethoxybenzo[b]thiophen-2-yl)-2-ethyl-4-oxobutanoic acid]",3.41 µM,144%,5.17 µM,
"COc1cc2cc(C(=O)CC(C(=O)O)C(C)C)sc2cc1OC (centres unmarked) [Example 2, 4-(5,6-Dimethoxybenzo[b]thiophen-2-yl)-2-isopropyl-4-oxobutanoic acid]",9.59 µM,149%,11.2 µM,
"COc1cc2cc(C(=O)CC(C(=O)O)C3CC3)sc2cc1OC (centres unmarked) [Example 3, 2-Cyclopropyl-4-(5,6-dimethoxybenzo[b]thiophen-2-yl)-4-oxobutanoic acid]",10.6 µM,59%,,41%
"COc1cc2cc(C(=O)C3CC3C(=O)O)sc2cc1OC (centres unmarked) [Example 4, 2-(5,6-Dimethoxybenzo[b]thiophene-2-carbonyl)cyclopropane carboxylic acid]",1.9 µM,34%,1.14 µM,
"COc1cc2sc(C(=O)CCC(=O)O)cc2cc1Cl [Example 7, 4-(5-Chloro-6-methoxybenzo[b]thiophen-2-yl)-4-oxobutanoic acid]",9.34 µM,290%,,20%
"C=Cc1cc2sc(C(=O)CCC(=O)O)cc2cc1OC [Example 8, 4-(5-Methoxy-6-vinylbenzo[b]thiophen-2-yl)-4-oxobutanoic acid]",6.77 µM,260%,15.5 µM,
"COc1cc2cc(C(=O)CCC(=O)O)sc2cc1Br [Example 9, 4-(6-Bromo-5-methoxybenzo[b]thiophen-2-yl)-4-oxobutanoic acid]",2.58 µM,298%,10.9 µM,
"CNc1cc2cc(C(=O)CCC(=O)O)sc2cc1OC [Example 10, 4-(6-Methoxy-5-(methylamino)benzo[b]thiophen-2-yl)-4-oxobutanoic acid]",14 µM,182%,,31%
"COc1cc2cc(C(=O)C[C@H](C)C(=O)O)sc2cc1OC [Example 11, (S)-4-(5,6-Dimethoxybenzo[b]thiophen-2-yl)-2-methyl-4-oxobutanoic acid]",2.73 µM,132%,3.87 µM,
"COc1cc2cc(C(=O)CCC(=O)OC(C)(C)C)sc2cc1OC [Example 12, tert-butyl 4-(5,6-dimethoxybenzo[b]thiophen-2-yl)-4-oxobutanoate]",,16%,,
"COc1cc2sc(C(=O)C[C@H](C)C(=O)O)cc2c(F)c1OC [Example 13, (S)-4-(4-fluoro-5,6-dimethoxybenzo[b]thiophen-2-yl)-2-methyl-4-oxobutanoic acid]",1.38 µM,228%,2.08 µM,
"COc1cc2sc(C(=O)CCC(=O)O)cc2c(F)c1OC [Example 14, 4-(4-fluoro-5,6-dimethoxybenzo[b]thiophen-2-yl)-4-oxobutanoic acid]",,394%,,
"COc1cc2cc(C(=O)C[C@H](C)C(=O)O)sc2cc1Br [Example 15, (S)-4-(6-bromo-5-methoxybenzo[b]thiophen-2-yl)-2-methyl-4-oxobutanoic acid]",0.894 µM,115%,0.894 µM,
"COc1cc2cc(C(=O)CCC(=O)O)sc2cc1OC [Example 16, 4-(5,6-dimethoxybenzo[b]thiophen-2-yl)-4-oxobutanoic acid]",1.72 µM,129%,2.48 µM,
"CNc1cc2sc(C(=O)C[C@H](C)C(=O)O)cc2cc1OC [Example 37, (S)-4-(5-methoxy-6-(methylamino)benzo[b]thiophen-2-yl)-2-methyl-4-oxobutanoic acid]",5.61 µM,42%,,
"COc1cc2cc(C(=O)C[C@H](C)C(=O)O)sc2cc1SC [Example 38, (S)-4-(5-methoxy-6-(methylthio)benzo[b]thiophen-2-yl)-2-methyl-4-oxobutanoic acid]",1.93 µM,154%,,
"C=Cc1cc2cc(C(=O)[C@@H]3C[C@@H]3C(=O)O)sc2cc1OC [Example 39, (1S,2R)-2-(6-methoxy-5-vinylbenzo[b]thiophene-2-carbonyl)cyclopropane-1-carboxylic acid]",1.15 µM,193%,,
"COc1cc2sc(C(=O)C3CC3C(=O)O)cc2cc1SC (centres unmarked) [Example 40, 2-(6-methoxy-5-(methylthio)benzo[b]thiophene-2-carbonyl)cyclopropane-1-carboxylic acid]",3.94 µM,93%,,
"COc1cc2cc(C(=O)C[C@H](C)C(=O)O[C@H]3CSSC[C@@H]3O)sc2cc1OC [Example 42, (S)-(4R,5R)-5-hydroxy-1,2-dithian-4-yl 4-(5,6-dimethoxybenzo[b]thiophen-2-yl)-2-methyl-4-oxobutanoate]",0.759 µM,6%,,
"CCCc1cc2sc(C(=O)C[C@H](C)C(=O)O)cc2cc1OC [Example 44, (2S)-4-(5-methoxy-6-propyl-1-benzothiophen-2-yl)-2-methyl-4-oxobutanoic acid]",15.7 µM,20%,,
"COc1cc2cc(C(=O)CCC(=O)O)sc2cc1CCF [Example 45, 4-[6-(2-fluoroethyl)-5-methoxy-1-benzothiophen-2-yl]-4-oxobutanoic acid]",14.7 µM,104%,,
"CCCc1cc2cc(C(=O)C[C@H](C)C(=O)O)sc2cc1OC [Example 47, (2S)-4-(6-methoxy-5-propyl-1-benzothiophen-2-yl)-2-methyl-4-oxobutanoic acid]",5.06 µM,90%,,
"CCCC(CC(=O)c1cc2cc(OC)c(OC)cc2s1)C(=O)O (centres unmarked) [Example 49, 2-(2-(5,6-dimethoxybenzo[b]thiophen-2-yl)-2-oxoethyl)pentanoic acid]",2.72 µM,111%,,
"COc1cc2sc(C(=O)C[C@H](C)C(=O)O)cc2c2nc(C)oc12 [Example 54, (S)-4-(4-methoxy-2-methylthieno[2′,3′:5,6]benzo[1,2-d]oxazol-7-yl)-2-methyl-4-oxobutanoic acid]",0.531 µM,66%,,
